Each compound was assayed against CfEcR(CDEF)-GST and CfUSP-GST fusion proteins (assay: Competitive 3H-ponasterone A binding assay, bacterial GST fusion proteins). Settings: bacterial CfEcR(CDEF)-GST/CfUSP-GST extracts, 3H-ponasterone A displacement.
Set-up: species or system Choristoneura fumiferana
Description: Bacterial glutathion-S-transferase (GST) fusion proteins of the spruce budworm (Choristoneura fumiferana) EcR (CfEcR), containing CDEF domains only, and ultraspiracle protein (CfUSP) were also used in radioligand displacement assays. cDNA encoding the CDEF domains of CfEcR were constructed following PCR amplification using primers that contain BamH1 and EcoRI sites (Perera S C, M Sundaram, Krell P J, Retnakaran A, Dhadialla T S, S R Palli, 1999 Arch. Insect Biochem. Physiol. 41 In Press). The PCR produce was digested with BamHI and EcoRI and cloned into pGEX-3X vector obtained from Pharmacia Biotech. CfUSP coding region was amplified using primers that contain BamH1 and EcoRI sites and cloned into to pGEX-2T vector obtained from Pharmacia Biotech. E. coli transformed with each of the two vectors were grown and induced to produce the fusion proteins as detailed in the Pharmacia Biotech GST-technical bulletin.
(§1) The concentrations of competitors that inhibited 50% of tritiated ponasterone A binding (IC50) was determined by incubating Kc or Plodia nuclear extracts or extracts of bacteria producing CfEcR(CDEF)-GST and CfUSP-GST fusions proteins with ^3H-ponasterone A (66,000 dpm per reaction) in the presence of a range of concentrations (0.1 nM to 10 μM) of test compounds. In the case of binding reactions using bacterial fusion proteins, 20 or one μl extract of bacteria producing CfEcR(CDEF)-GST or CfUSP-GST fusion proteins, respectively, were included per binding reaction. The assay conditions and determination of total and non-specific binding was as described above. The volume of competitor in solvent, like that for 20E or solvent alone, was kept at 1% of total reaction volume by using a 100 fold concentrated stock solution (i.e. a 100 fold dilution of stock solutions). The remainder of the assay was as described above. Each reaction was carried out in duplicate per concentration per test compound. […]

Structure (SMILES) | Bacterial CfECR log(1/IC50)
Cc1cc(CO)cc(C(=O)N(NC(=O)c2cccc(O)c2C)C(C)(C)C)c1 [Ligand 15] | 8.49
Cc1cc(C)cc(C(=O)N(NC(=O)c2cccc(O)c2C)C(C)(C)C)c1 [Ligand 14] | 8.61

These compounds were tested against T1, ecdysteroid receptor complex in Plodia interpunctella (IAL-PID2) nuclear extract (Plodia interpunctella, UniProt Q6RVD3) (assay: Competitive 3H-ponasterone A binding assay, Plodia nuclear ecdysone receptor extract). Settings: 3H-ponasterone A displacement.
T1 sequence (Q6RVD3 1-541): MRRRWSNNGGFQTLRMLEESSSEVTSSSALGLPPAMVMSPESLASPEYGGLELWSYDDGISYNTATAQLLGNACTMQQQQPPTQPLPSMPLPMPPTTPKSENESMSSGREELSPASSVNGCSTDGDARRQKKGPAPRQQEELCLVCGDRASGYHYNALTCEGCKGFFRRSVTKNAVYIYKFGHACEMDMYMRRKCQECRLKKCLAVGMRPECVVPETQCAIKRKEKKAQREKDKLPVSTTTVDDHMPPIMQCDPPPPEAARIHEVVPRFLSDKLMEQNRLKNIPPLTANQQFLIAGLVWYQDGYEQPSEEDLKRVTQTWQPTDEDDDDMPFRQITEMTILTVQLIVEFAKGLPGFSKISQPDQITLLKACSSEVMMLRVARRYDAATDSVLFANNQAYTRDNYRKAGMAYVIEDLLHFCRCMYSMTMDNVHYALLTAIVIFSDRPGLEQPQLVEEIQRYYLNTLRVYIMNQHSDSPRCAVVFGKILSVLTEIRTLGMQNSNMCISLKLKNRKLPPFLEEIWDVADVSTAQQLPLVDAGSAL
T1 sequence (Q6IVK1 1-415 partner): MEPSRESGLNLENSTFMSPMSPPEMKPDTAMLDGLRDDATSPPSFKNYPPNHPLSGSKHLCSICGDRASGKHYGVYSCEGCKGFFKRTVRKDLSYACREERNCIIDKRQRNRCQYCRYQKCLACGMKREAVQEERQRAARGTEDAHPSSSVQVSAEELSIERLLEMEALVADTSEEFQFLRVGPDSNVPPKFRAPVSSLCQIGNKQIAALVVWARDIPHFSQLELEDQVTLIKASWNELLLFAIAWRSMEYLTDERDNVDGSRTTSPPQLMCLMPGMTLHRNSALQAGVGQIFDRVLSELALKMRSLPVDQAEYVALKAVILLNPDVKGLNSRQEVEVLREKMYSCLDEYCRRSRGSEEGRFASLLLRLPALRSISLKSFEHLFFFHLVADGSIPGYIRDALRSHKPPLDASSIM
Experimental: The cell line IAL-PID2, derived from imaginal wing discs of the lepidopteran Plodia interpunctella was obtained from H. Oberlander and maintained as described (Lynn, E. E. and Oberlander, H., (1983), J. Insect Physiology, 29, 591-96). A 300 ml stationary phase culture of P. interpunctella cells was centrifuged at 700×g for 10 mm at room temperature to pellet the cells. The supernatant was aspirated and the cellular pellet resuspended in 35 ml TMT (TM buffer with 0.1% Triton X-100). The suspension was homogenized with twenty up and down strokes of a Dounce homogenizer on ice. Homogenate was incubated on ice for 10 minutes and then centrifuged for 15 min at 900×g. The pellet was resuspenced in 15 ml TM buffer and centrifuged at 2,300×g. This pellet was extracted in TMK buffer (TM buffer with 800 mM KCl) by using a glass rod to crush the pellet until a gelatinous slurry was formed and incubated on ice for 15 minutes. The extract was centrifuged at 100,000×g in a swinging bucket rotor for 60 minutes. The supernatant, which constituted the nuclear extract, was desalted on a 10 DG desalting column (Bio-Rad, 732-2010) equilibrated with T-buffer. The total protein concentration in the nuclear extract was adjusted to 5 mg per ml with T-buffer containing 1 mM DTT.
^3H ponasterone A, a potent phytoecdysteroid, (66,000 dpm; specific activity 170 Ci/mmole; NEN Life Science Products, Boston, Mass.) was mixed with 100 μl Kc cytosolic or Plodia nuclear ecdysone receptor extracts in […] glass test tubes in the absence or presence of 10 μM unlabelled 20-hydroxyecdysone (20E) to obtain an estimate of total or non-specific respectively, binding of tritiated ponasterone A. The tubes were vortexed and incubated overnight at 4° C. for Kc cytosolic extracts or 1.5 hours for Plodia nuclear extracts for binding reactions to reach equilibrium. At the end of equilibrium binding times, the bound tritiated ponasterone A was separated from the unbound by addition of ice-cold 600 μl or 300 μl dextran-coated charcoal solution (500 mg of Sigma HCL-washed activated charcoal, 50 mg Pharmacia Dextran T70, 50 ml T-buffer) to Kc or Plodia extracts, respectively. The tubes were vortexed briefly and centrifuged at 7,000×g to pellet the charcoal. The supernatant, 600 μl or 300 μl for Kc or Plodia extract reactions, respectively, containing tritiated ponasterone A bound to proteins, was aspirated into liquid scintillation vials containing 5 ml scintillation cocktail (ReadySafe®, Beckmann) each The mixture was vortexed and the amount of total or non-specifically bound radioactivity measured in a Beckmann LS500 liquid scinitllation counter with a 60% counting efficiency for tritium.
as §1, with “compound. Specific binding of ^3H-ponasterone A was determined by subtracting non-specific binding (that obtained in the presence of 10 μM 20E) from total (no competitor) or competed radioactivity bound.” for “compound.”

Structure (SMILES) | Plodia log(1/IC50)
CCc1c(OC)cccc1C(=O)NN(C(=O)c1cc(C)cc(Cl)c1)C(C)(C)C [Ligand 10] | 8.80
COc1cccc(C(=O)NN(C(=O)c2cc(Cl)cc(Cl)c2)C(C)(C)C)c1C [Ligand 9] | 9.00
CCOc1cccc(C(=O)NN(C(=O)c2cc(C)cc(C)c2)C(C)(C)C)c1C [Ligand 6] | 8.82
CCc1c(C(=O)NN(C(=O)c2cc(C)cc(C)c2)C(C)(C)C)ccc2c1OCCO2 [Ligand 7] | 8.78
COc1cccc(C(=O)NN(C(=O)c2cc(C)cc(C)c2)C(C)(C)C)c1C(C)C [Ligand 11] | 8.93

Reference: patent publication US20010044151A1, “Ligands for modulating the expression of exogenous genes via an ecdysone receptor complex” (priority 1998, published 2001)
